Each structure is given as a SMILES string.

For one test, the target named is T1, TRPML1 (Homo sapiens, UniProt Q9GZU1).
T1 construct: expressed in transfected cells; host or cells: HEK T-REx cells stably expressing GCaMP6f and TRPML1
T1 sequence (Q9GZU1 whole entry): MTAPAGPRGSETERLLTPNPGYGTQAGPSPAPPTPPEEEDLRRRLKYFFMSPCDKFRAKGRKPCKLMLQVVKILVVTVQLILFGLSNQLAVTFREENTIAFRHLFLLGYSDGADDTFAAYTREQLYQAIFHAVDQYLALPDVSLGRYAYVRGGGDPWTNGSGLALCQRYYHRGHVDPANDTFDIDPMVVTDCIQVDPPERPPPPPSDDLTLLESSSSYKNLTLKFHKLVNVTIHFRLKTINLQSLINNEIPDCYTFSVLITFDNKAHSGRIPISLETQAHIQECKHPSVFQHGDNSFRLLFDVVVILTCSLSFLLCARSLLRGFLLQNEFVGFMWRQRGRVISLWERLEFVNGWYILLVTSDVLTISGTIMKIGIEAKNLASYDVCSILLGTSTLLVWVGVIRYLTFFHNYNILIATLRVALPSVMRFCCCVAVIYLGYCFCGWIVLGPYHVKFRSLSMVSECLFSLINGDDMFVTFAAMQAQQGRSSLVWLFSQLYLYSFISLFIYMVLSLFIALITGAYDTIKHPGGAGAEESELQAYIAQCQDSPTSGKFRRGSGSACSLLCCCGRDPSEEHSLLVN
Briefly: Cellular TRPML1 assay (FLIPR, GCaMP6f calcium read-out). Type of test: cell-based.
Conditions: not given
In outline:
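Read-out is GCaMP6f fluorescence over 300 s after compound addition in Ca2+-free Tyrode's buffer, final DMSO 0.5%, on FLIPR Tetra. Cells are HEK T-REx stably co-expressing the indicator and TRPML1, plated 24 h earlier in Optimem + 0.5% FBS and pre-incubated ~10 min at room temperature.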
In the case of `CCC1(OC)CN(c2nc(C(=O)Nc3cc(C)c(N4C5CCCC4CC5)c(F)c3)c(CCF)o2)C1` [Example 291, N-(4-(8-azabicyclo[3.2.1]octan-8-yl)-3-fluoro-5-methylphenyl)-2-(3-ethyl-3-methoxyazetidin-1-yl)-5-(2-fluoroethyl)oxazole-4-carboxamide], the EC50 lay in the range of 0.01 to 1 µM.

The same test, now with this note: HEKT-REx/GCaMP6f/TRPML1 cells, FLIPR TETRA, kinetic response over 300 seconds; read-out: TRPML1 FLIPR pEC50 (converted).
Turning to `CCc1oc(-n2cccn2)nc1C(=O)Nc1cc(F)c(O[C@@H]2C[C@@H]3C[C@@H]3C2)c(F)c1` [Example 232, N-(4-(cis-bicyclo[3.1.0]hexan-3-yloxy)-3,5-difluorophenyl)-5-ethyl-2-(1H-pyrazol-1-yl)oxazole-4-carboxamide], the EC50 was 1 to 10 µM. For `CCc1oc(N2CC3CCOC3C2)nc1C(=O)Nc1cc(F)c(OC2CC3C[C@H]3C2)c(F)c1` (stereo partly drawn) [Example 233, N-(4-(cis-bicyclo[3.1.0]hexan-3-yloxy)-3,5-difluorophenyl)-5-ethyl-2-(hexahydro-5H-furo[2,3-c]pyrrol-5-yl)oxazole-4-carboxamide], the EC50 is 1 to 10 µM.

`CCc1oc(N2CC(CC)(OC)C2)nc1C(=O)Nc1cc(F)c(OC2CCOC2)c(F)c1` (stereo not shown) [Example 234, N-(3,5-difluoro-4-((tetrahydrofuran-3-yl)oxy)phenyl)-5-ethyl-2-(3-ethyl-3-methoxyazetidin-1-yl)oxazole-4-carboxamide]: the EC50 is 1 to 10 µM. Same read-out and setting: with `CCc1oc(N2CC(CC)(CC)C2)nc1C(=O)Nc1cc(F)c(OC2CCCOC2)c(F)c1` (stereo not shown) [Example 236, 2-(3,3-diethylazetidin-1-yl)-N-(3,5-difluoro-4-((tetrahydro-2H-pyran-3-yl)oxy)phenyl)-5-ethyloxazole-4-carboxamide] the figure was 0.01 to 1 µM; with `CCc1oc(N2CC3COCC3C2)nc1C(=O)Nc1cc(F)c(OC2CC3C[C@H]3C2)c(F)c1` (stereo partly drawn) [Example 237, N-(4-(cis-bicyclo[3.1.0]hexan-3-yloxy)-3,5-difluorophenyl)-5-ethyl-2-(tetrahydro-1H-furo[3,4-c]pyrrol-5(3H)-yl)oxazole-4-carboxamide], 0.01 to 1 µM. Consider `CCc1oc(N2CCCCCC2)nc1C(=O)Nc1cc(F)c(O[C@@H]2C[C@@H]3C[C@@H]3C2)c(F)c1` [Example 242, 2-(azepan-1-yl)-N-(4-(cis-bicyclo[3.1.0]hexan-3-yloxy)-3,5-difluorophenyl)-5-ethyloxazole-4-carboxamide], for which the EC50 was 0.01 to 1 µM. On to `CCc1oc(N2CC(CC)(CC)C2)nc1C(=O)Nc1cc(F)c(O[C@@H]2C[C@@H]3C[C@@H]3C2)c(F)c1` [Example 243, N-(4-(cis-bicyclo[3.1.0]hexan-3-yloxy)-3,5-difluorophenyl)-2-(3,3-diethylazetidin-1-yl)-5-ethyloxazole-4-carboxamide], for which the EC50 was 0.01 to 1 µM.

Consider `CCc1oc(N2CC(CC)(OC)C2)nc1C(=O)Nc1ccc(O[C@@H]2C[C@@H]3C[C@@H]3C2)c(F)c1` [Example 246, N-(4-(cis-bicyclo[3.1.0]hexan-3-yloxy)-3-fluorophenyl)-5-ethyl-2-(3-ethyl-3-methoxyazetidin-1-yl)oxazole-4-carboxamide], for which the EC50 was 0.01 to 1 µM. On the same count and under the same terms, the result for `CCc1oc(N2CC(C)(OC)C2)nc1C(=O)Nc1ccc(O[C@@H]2C[C@@H]3C[C@@H]3C2)c(C)c1` [Example 248, N-(4-(cis-bicyclo[3.1.0]hexan-3-yloxy)-3-methylphenyl)-5-ethyl-2-(3-methoxy-3-methylazetidin-1-yl)oxazole-4-carboxamide] reads 1 to 10 µM; that for `CCc1oc(N2CC(CC)(OC)C2)nc1C(=O)Nc1ccc(O[C@@H]2C[C@@H]3C[C@@H]3C2)c(F)c1F` [Example 250], 10 to 100 µM; that for `CCc1oc(N2CC(CC)(OC)C2)nc1C(=O)Nc1cc(F)c(O[C@@H]2C[C@@H]3C[C@@H]3C2)cc1F` [Example 251, N-(4-(cis-bicyclo[3.1.0]hexan-3-yloxy)-2,5-difluorophenyl)-5-ethyl-2-(3-ethyl-3-methoxyazetidin-1-yl)oxazole-4-carboxamide], 1 to 10 µM.

Consider `CCc1oc(N2CCCC2)nc1C(=O)Nc1cc(C)c(NC2CC3CC(C3)C2)c(F)c1` (stereo not shown) [Example 252, N-(4-(bicyclo[3.1.1]heptan-3-ylamino)-3-fluoro-5-methylphenyl)-5-ethyl-2-(pyrrolidin-1-yl)oxazole-4-carboxamide], for which the EC50 was 1 to 10 µM. On to `CCc1oc(N2CC(CC)(CC)C2)nc1C(=O)Nc1cc(C)c(NC2CC3CC(C3)C2)c(F)c1` (stereo not shown) [Example 253, N-(4-(bicyclo[3.1.1]heptan-3-ylamino)-3-fluoro-5-methylphenyl)-2-(3,3-diethylazetidin-1-yl)-5-ethyloxazole-4-carboxamide], for which the EC50 is 1 to 10 µM. For `CCc1oc(N2CC3COCC3C2)nc1C(=O)Nc1cc(F)c(N2CC3CC(C3)C2)c(F)c1` (stereo not shown) [Example 257, N-(4-(3-azabicyclo[3.1.1]heptan-3-yl)-3,5-difluorophenyl)-5-ethyl-2-(tetrahydro-1H-furo[3,4-c]pyrrol-5(3H)-yl)oxazole-4-carboxamide], the EC50 is 1 to 10 µM. With `CCc1oc(N2CC(C)(OC)C2)nc1C(=O)Nc1cc(F)c(N2CC3CC(C3)C2)c(F)c1` [Example 258, N-(4-(3-azabicyclo[3.1.1]heptan-3-yl)-3,5-difluorophenyl)-5-ethyl-2-(3-methoxy-3-methylazetidin-1-yl)oxazole-4-carboxamide], the EC50 was 1 to 10 µM.

For the compound `COC1(C)CN(c2nc(C(=O)Nc3cc(C)c(O[C@@H]4C[C@@H]5C[C@@H]5C4)c(O)c3)c(CC(F)(F)F)o2)C1` [Example 263, N-(4-(cis-bicyclo[3.1.0]hexan-3-yloxy)-3-hydroxy-5-methylphenyl)-2-(3-methoxy-3-methylazetidin-1-yl)-5-(2,2,2-trifluoroethyl)oxazole-4-carboxamide], the EC50 was 0.01 to 1 µM. Still for that read-out and setting: the result for `COC1(C)CN(c2nc(C(=O)Nc3cc(O)c(OC4CC5CC(C5)C4)c(F)c3)c(CC(F)(F)F)o2)C1` (stereo not shown) [Example 265, N-(4-(bicyclo[3.1.1]heptan-3-yloxy)-3-fluoro-5-hydroxyphenyl)-2-(3-methoxy-3-methylazetidin-1-yl)-5-(2,2,2-trifluoroethyl)oxazole-4-carboxamide] reads 1 to 10 µM; that for `CCC1(OC)CN(c2nc(C(=O)Nc3cc(O)c(OC4CC5CC(C5)C4)c(F)c3)c(CC(F)(F)F)o2)C1` (stereo not shown) [Example 266, N-(4-(bicyclo[3.1.1]heptan-3-yloxy)-3-fluoro-5-hydroxyphenyl)-2-(3-ethyl-3-methoxyazetidin-1-yl)-5-(2,2,2-trifluoroethyl)oxazole-4-carboxamide], 1 to 10 µM. On the same count and under the same terms, with `COC1(C)CN(c2nc(C(=O)Nc3cc(O)c(O[C@@H]4C[C@@H]5C[C@@H]5C4)c(F)c3)c(CC(F)(F)F)o2)C1` [Example 267, N-(4-(cis-bicyclo[3.1.0]hexan-3-yloxy)-3-fluoro-5-hydroxyphenyl)-2-(3-methoxy-3-methylazetidin-1-yl)-5-(2,2,2-trifluoroethyl)oxazole-4-carboxamide] the figure was 1 to 10 µM; with `CCC1(OC)CN(c2nc(C(=O)Nc3cc(O)c(O[C@@H]4C[C@@H]5C[C@@H]5C4)c(F)c3)c(CC(F)(F)F)o2)C1` [Example 268, N-(4-(cis-bicyclo[3.1.0]hexan-3-yloxy)-3-fluoro-5-hydroxyphenyl)-2-(3-ethyl-3-methoxyazetidin-1-yl)-5-(2,2,2-trifluoroethyl)oxazole-4-carboxamide], 1 to 10 µM. Take `CCC1(CC)CN(c2nc(C(=O)Nc3ccc(O[C@@H]4C[C@@H]5C[C@@H]5C4)c(O)c3)c(CC(F)(F)F)o2)C1` [Example 270, N-(4-(cis-bicyclo[3.1.0]hexan-3-yloxy)-3-hydroxyphenyl)-2-(3,3-diethylazetidin-1-yl)-5-(2,2,2-trifluoroethyl)oxazole-4-carboxamide]: the EC50 was 1 to 10 µM.

For `CCc1oc(N2CC(C)(OC)C2)nc1C(=O)Nc1cc(O)c(OC2CC3C[C@@H]3C2)c(Cl)c1` (stereo partly drawn) [Example 271, N-(4-(cis-bicyclo[3.1.0]hexan-3-yloxy)-3-chloro-5-hydroxyphenyl)-5-ethyl-2-(3-methoxy-3-methylazetidin-1-yl)oxazole-4-carboxamide], the EC50 was 1 to 10 µM.

Consider `CCC1(CC)CN(c2nc(C(=O)Nc3cc(F)c(O[C@@H]4C[C@@H]5C[C@@H]5C4)c(F)c3)c(C)o2)C1` [Example 273, N-(4-(cis-bicyclo[3.1.0]hexan-3-yloxy)-3,5-difluorophenyl)-2-(3,3-diethylazetidin-1-yl)-5-methyloxazole-4-carboxamide], for which the EC50 was 0.01 to 1 µM. Still for that read-out and setting: the result for `CCCc1oc(N2CCCC2)nc1C(=O)Nc1cc(F)c(O[C@@H]2C[C@@H]3C[C@@H]3C2)c(F)c1` [Example 274, N-(4-(cis-bicyclo[3.1.0]hexan-3-yloxy)-3,5-difluorophenyl)-5-propyl-2-(pyrrolidin-1-yl)oxazole-4-carboxamide] reads 0.01 to 1 µM; that for `CCC1(CC)CN(c2nc(C(=O)Nc3cc(C)c(NC4CC5CC(C5)C4)c(F)c3)c(CCF)o2)C1` (stereo not shown) [Example 292, N-(4-(bicyclo[3.1.1]heptan-3-ylamino)-3-fluoro-5-methylphenyl)-2-(3,3-diethylazetidin-1-yl)-5-(2-fluoroethyl)oxazole-4-carboxamide], 1 to 10 µM; that for `CCC1(CC)CN(c2nc(C(=O)Nc3cc(C)c(O[C@@H]4C[C@@H]5C[C@@H]5C4)c(F)c3)c(CN3CCC3)o2)C1` [Example 297, 5-(azetidin-1-ylmethyl)-N-(4-(cis-bicyclo[3.1.0]hexan-3-yloxy)-3-fluoro-5-methylphenyl)-2-(3,3-diethylazetidin-1-yl)oxazole-4-carboxamide], 1 to 10 µM. As to `CCC1(CC)CN(c2nc(C(=O)Nc3cc(C)c(O[C@@H]4C[C@@H]5C[C@@H]5C4)c(F)c3)c(CN3CCCC3)o2)C1` [Example 298, N-(4-(cis-bicyclo[3.1.0]hexan-3-yloxy)-3-fluoro-5-methylphenyl)-2-(3,3-diethylazetidin-1-yl)-5-(pyrrolidin-1-ylmethyl)oxazole-4-carboxamide], the EC50 was 1 to 10 µM.

Values taken from US12098145B2 (Libra Therapeutics, Inc., priority 2022, dated 2024).
